Results taken from paper PMC9085577, “Discovery of a Potent and Orally Active Dual GPBAR1/CysLT1R Modulator for the Treatment of Metabolic Fatty Liver Disease” (Frontiers in Pharmacology, 2022).

Tested on: liver transcriptome
Test: AmpliSeq liver transcriptome of HFD-F mice
Type: in vivo
Conditions: liver, HFD-F + compound 2 vs HFD-F
Description: C57BL/6J male mice were fed a high fat diet (HFD) containing 59 KJ% fat plus 1% cholesterol, w/o sugar (ssniff ® EF R/M acc. D12330 mod. 22,7 ME/kg) and fructose (HFD-F) in drinking water (42 g/L), or normal chow diet for 61 days. Food intake was estimated as the difference of weight between the offered and the remnant amount of food at 3-days intervals. The food was provided as pressed pellets and the residual spillage was not considered. After 7 days, HFD-F mice were randomized to receive HFD-F alone or in combination with compound 2 (30 mg/kg/day) by gavage until the end of the experiment. Doses of each agent were chosen according to previously published data. Mice were housed under controlled temperature (22°C) and photoperiods (12:12-h light/dark cycle), allowed unrestricted access to standard mouse chow and tap water. The experimental protocol was approved by the Animal Care and Use Committee of the University of Perugia and by the Italian Minister of Health and Istituto Superiore di Sanità (Italy) and was in agreement with the European guidelines for use of experimental animals (permission n. 583/2017-PR). The general health of the animals was monitored daily by the Veterinarian in the animal facility. At the day of sacrifice, fed mice were deeply anesthetized with a mixture of tiletamine hypochloride and zolazepam hypochloride/xylazine at a dose of 50/5 mg/kg and sacrificed before 12 a.m.
High-quality RNA was extracted from mice livers, using the Direct-zol™ RNA MiniPrep w/Zymo-Spin™ IIC Columns (Zymo Research, Irvine, CA) according to the manufacturer’s instructions. RNA quality and quantity were assessed with the Qubit® RNA HS Assay Kit and a Qubit 3.0 fluorometer (Invitrogen, Carlsbad, CA) followed by agarose gel electrophoresis. Libraries were generated using the Ion AmpliSeq™ Transcriptome Mouse Gene Expression Core Panel and Chef-Ready Kit (Comprehensive evaluation of AmpliSeq transcriptome, a whole transcriptome RNA sequencing methodology) (Thermo Fisher Scientific, Waltham, MA). Briefly, 10 ng of RNA was reverse transcribed with SuperScript™ Vilo™ cDNA Synthesis Kit (Thermo Fisher Scientific, Waltham, MA) before library preparation on the Ion Chef™ instrument (Thermo Fisher Scientific, Waltham, MA). The resulting cDNA was amplified to prepare barcoded libraries using the Ion Code™ PCR Plate, and the Ion AmpliSeq™ Transcriptome Mouse Gene Expression Core Panel (Thermo Fisher Scientific, Waltham, MA), Chef-Ready Kit, according to the manufacturer’s instructions. Barcoded libraries were combined to a final concentration of 100 p.m., and used to prepare Template-Positive Ion Sphere™ (Thermo Fisher Scientific, Waltham, MA) Particles to load on Ion 540™ Chips, using the Ion 540™ Kit-Chef (Thermo Fisher Scientific, Waltham, MA). Sequencing was performed on an Ion S5™ Sequencer with Torrent Suite™ Software v6 (Thermo Fisher Scientific, Waltham, MA). The analyses were performed with a range of fold <−2 and >+2 and a p value <0.05, using Transcriptome Analysis Console Software (version 4.0.1), certified for AmpliSeq analysis (Thermo-Fisher). The transcriptomic data have been deposited as dataset on Mendeley data repository (reference number linking to the repository: Fiorucci, Stefano; Biagioli, Michele; Marchianò, Silvia; Di Giorgio, Cristina (2021), “Discovery of potent dual GPBAR1/CysLT1R modulator for the treatment of metabolic fatty liver disease,” Mendeley Data, V1, doi: 10.17632/6dnrk9fc72.1).

**Q.** For `O=C(O)c1cccc(-c2ccc(OCc3ccc4ccccc4n3)cc2)c1` [Compound 2, 4'-(quinolin-2-ylmethoxy)-[1,1′-biphenyl]-3-carboxylic acid], which “Gm31649 transcript Fold Change” value is on record?
**A.** The value was 2.82.

**Q.** What about the “Gm36796 transcript Fold Change” value of the same compound?
**A.** The value was -2.15.

**Q.** And the “Gnat1 transcript Fold Change” value?
**A.** Its value is -2.26.

**Q.** And the “Gngt1 transcript Fold Change” value?
**A.** The value was -2.64.

**Q.** What about the “Gpnmb transcript Fold Change” value of the same compound?
**A.** Its value is -3.95.

**Q.** What about the “Hnf4aos transcript Fold Change” value of the same compound?
**A.** Its value is 2.36.

**Q.** And the “Hnrnpa0 transcript Fold Change” value?
**A.** Its value is -2.58.

**Q.** And the “Hspa5 transcript Fold Change” value?
**A.** The value was -2.37.

**Q.** What about the “Igip transcript Fold Change” value of the same compound?
**A.** Its value is -2.32.

**Q.** And the “Il1b transcript Fold Change” value?
**A.** The value was -2.2.

**Q.** And the “Il1rn transcript Fold Change” value?
**A.** Its value is -2.12.

**Q.** And the “Insig2 transcript Fold Change” value?
**A.** The value was -3.18.

**Q.** What about the “Itgam transcript Fold Change” value of the same compound?
**A.** The value was -5.37.

**Q.** And the “Kif20a transcript Fold Change” value?
**A.** The value was -2.25.

**Q.** And the “LOC108167447 transcript Fold Change” value?
**A.** The value was 2.42.

**Q.** And the “LOC108168323 transcript Fold Change” value?
**A.** The value was -2.25.

**Q.** What about the “Lactb2 transcript Fold Change” value of the same compound?
**A.** Its value is -2.04.

**Q.** What about the “Ly6d transcript Fold Change” value of the same compound?
**A.** Its value is -4.62.

**Q.** What about the “Meg3 transcript Fold Change” value of the same compound?
**A.** Its value is 2.02.

**Q.** And the “Mettl9 transcript Fold Change” value?
**A.** Its value is -2.22.

**Q.** What about the “Mki67 transcript Fold Change” value of the same compound?
**A.** Its value is -2.36.

**Q.** What about the “Mogat1 transcript Fold Change” value of the same compound?
**A.** Its value is -2.13.

**Q.** And the “Mthfd2 transcript Fold Change” value?
**A.** Its value is -2.03.

**Q.** And the “Mvd transcript Fold Change” value?
**A.** The value was -2.06.

**Q.** And the “Nat8 transcript Fold Change” value?
**A.** The value was 2.38.

**Q.** What about the “Neat1 transcript Fold Change” value of the same compound?
**A.** Its value is -2.87.

**Q.** What about the “Npas2 transcript Fold Change” value of the same compound?
**A.** The value was -3.98.

**Q.** What about the “Nr4a1 transcript Fold Change” value of the same compound?
**A.** The value was -2.25.

**Q.** And the “Nrep transcript Fold Change” value?
**A.** Its value is 2.34.

**Q.** And the “Nuak2 transcript Fold Change” value?
**A.** Its value is 2.15.

**Q.** And the “Pcbp1 transcript Fold Change” value?
**A.** Its value is -4.32.

**Q.** What about the “Pcp4l1 transcript Fold Change” value of the same compound?
**A.** Its value is 2.55.

**Q.** What about the “Pdilt transcript Fold Change” value of the same compound?
**A.** The value was 3.33.

**Q.** And the “Pdpn transcript Fold Change” value?
**A.** Its value is -2.04.

**Q.** What about the “Per3 transcript Fold Change” value of the same compound?
**A.** Its value is 4.98.

**Q.** What about the “Plau transcript Fold Change” value of the same compound?
**A.** Its value is -4.02.

**Q.** And the “Plaur transcript Fold Change” value?
**A.** Its value is -2.77.

**Q.** And the “Pld6 transcript Fold Change” value?
**A.** Its value is 2.03.

**Q.** What about the “Plekhg3 transcript Fold Change” value of the same compound?
**A.** The value was 2.05.

**Q.** What about the “Plxnc1 transcript Fold Change” value of the same compound?
**A.** Its value is -2.05.

**Q.** What about the “Pnpla3 transcript Fold Change” value of the same compound?
**A.** Its value is -2.9.

**Q.** And the “Podn transcript Fold Change” value?
**A.** Its value is 2.29.

**Q.** What about the “Ppp1r3c transcript Fold Change” value of the same compound?
**A.** The value was -2.05.

**Q.** What about the “Prox1 transcript Fold Change” value of the same compound?
**A.** Its value is 2.06.

**Q.** And the “Psat1 transcript Fold Change” value?
**A.** Its value is -2.69.

**Q.** And the “Ptgs2 transcript Fold Change” value?
**A.** Its value is -4.87.

**Q.** What about the “Raet1e transcript Fold Change” value of the same compound?
**A.** The value was -2.18.

**Q.** What about the “Raet1d transcript Fold Change” value of the same compound?
**A.** The value was -2.32.

**Q.** And the “Ralbp1 transcript Fold Change” value?
**A.** The value was 3.61.

**Q.** What about the “Rhob transcript Fold Change” value of the same compound?
**A.** The value was -3.06.

**Q.** What about the “Rrs1 transcript Fold Change” value of the same compound?
**A.** The value was -2.27.

**Q.** What about the “Saa4 transcript Fold Change” value of the same compound?
**A.** The value was 5.34.

**Q.** And the “Sart3 transcript Fold Change” value?
**A.** The value was 2.37.

**Q.** What about the “Sbk1 transcript Fold Change” value of the same compound?
**A.** Its value is 2.54.

**Q.** And the “Sec11c transcript Fold Change” value?
**A.** The value was -2.18.

**Q.** And the “Senp1 transcript Fold Change” value?
**A.** The value was 3.54.

**Q.** And the “Serpina7 transcript Fold Change” value?
**A.** The value was -2.84.

**Q.** And the “Serpine1 transcript Fold Change” value?
**A.** The value was -3.49.

**Q.** And the “Slc16a1 transcript Fold Change” value?
**A.** The value was -2.37.

**Q.** And the “Slc17a8 transcript Fold Change” value?
**A.** Its value is -2.06.

**Q.** And the “Slc39a8 transcript Fold Change” value?
**A.** The value was -2.02.

**Q.** What about the “Slc40a1 transcript Fold Change” value of the same compound?
**A.** The value was -2.28.

**Q.** And the “Slc46a3 transcript Fold Change” value?
**A.** Its value is 2.23.

**Q.** And the “Spon2 transcript Fold Change” value?
**A.** The value was -3.19.

**Q.** And the “Sqle transcript Fold Change” value?
**A.** The value was -2.72.

**Q.** What about the “Stfa3 transcript Fold Change” value of the same compound?
**A.** The value was -9.86.

**Q.** What about the “Taok3 transcript Fold Change” value of the same compound?
**A.** The value was 2.06.

**Q.** What about the “Tk1 transcript Fold Change” value of the same compound?
**A.** Its value is 2.3.

**Q.** And the “Tmx1 transcript Fold Change” value?
**A.** The value was 2.28.

**Q.** And the “Tnf transcript Fold Change” value?
**A.** Its value is -2.39.

**Q.** And the “Tnfrsf23 transcript Fold Change” value?
**A.** Its value is -2.38.

**Q.** What about the “Tnnc1 transcript Fold Change” value of the same compound?
**A.** The value was 2.09.

**Q.** And the “Tsku transcript Fold Change” value?
**A.** Its value is 2.15.

**Q.** What about the “Ubqln2 transcript Fold Change” value of the same compound?
**A.** The value was -2.65.

**Q.** What about the “Uhrf1 transcript Fold Change” value of the same compound?
**A.** The value was -2.03.

**Q.** And the “Upp2 transcript Fold Change” value?
**A.** The value was 2.5.

**Q.** What about the “Usp2 transcript Fold Change” value of the same compound?
**A.** Its value is 3.94.

**Q.** And the “Wrn transcript Fold Change” value?
**A.** The value was 3.79.

**Q.** What about the “Zfp101 transcript Fold Change” value of the same compound?
**A.** Its value is -2.1.

**Q.** And the “Zfp445 transcript Fold Change” value?
**A.** The value was 2.82.
